Patent US20050113458A1, “Use of 1-aminocyclohexane derivatives to modify deposition of fibrillogenic a-beta peptides in amyloidopathies” (Forest Laboratories, Inc., priority 2003, published 2005)
“Also recorded” adds a separate entry of the source. Like-named read-outs stand apart in the source and are kept apart here.

Tests used:
[1] = tested on: human neuroblastoma cells SK-N-SH; assay: Cellular toxicity, LDH assay; assay type: cell-based; details: 1-4 μM
Experimental: (§1) Cell culture and drug treatment. Human neuroblastoma (SK-N-SH, ATCC HTB-11, Biedler et al., Cancer Res. 1973, 33(11): 2643-52) cells were seeded at approximately 2×10^6 cells/well in a 6-well plate. Thereafter, drug concentrations of memantine were initiated at 0 μg/ml (control), 0.25 μg/ml (1 μM), 0.5 μg/ml (2 μM), and 1.0 μg/ml (4 μM) in MEM media supplemented with 1% FBS and 1× antibiotic. Treatment period was 12 days with a collection of conditioned media (CM) at 3 day intervals. Following collection, fresh memantine-media was added and the process repeated until harvest on day 12. The levels of both sAPP and Aβ40 were determined as described below.
Cell Toxicity and Viability Assays. Cell viability in control and memantine-treated samples was measured using MTT (the tetrazolium dye 3-[4,5-dimethylthiazol-2-yl]-2,5-diphenyltetrazolium bromide). Cellular toxicity was measured uding lactate dehydrogenase (LDH) (Sigma, St. Louis, Mo.) assay.

[2] = Dose-finding pilot study: steady-state plasma concentration of memantine; assay type: in vivo, male C57BL/6J mice; details: male, C57BL/6J, mouse, mean±SEM, read-out: steady-state plasma level
Source text: (§2) Transgenic mice expressing either human PS1 harboring the familial AD-linked A246E mutation or chimeric mouse/human APP695 harboring a human Aβ domain and mutations (K595N, M596L) linked to Swedish familial AD pedigrees (APPswe) (Borchelt et al., 1997) were back-crossed to C57BL/6J for 16 generations and then crossed together to generate double transgenic mice co-expressing both transgenes. In all tests, 8-month-old double-mutant male mice (APP/PS1; n=45) and their non-transgenic littermates (NT; n=36, ) were used. […] The therapeutic dose of memantine was defined as the dose producing a steady-state plasma drug level of ˜1 μM and was determined in 8-month-old male C57 BL/6J mice (background strain of the transgenic mice).
Dose-finding pilot study: A pilot study was undertaken to determine the therapeutic dose of memantine [i.e., the dose of memantine producing a steady-state plasma drug level of around 1 μM, which several preclinical and clinical studies have indicated is therapeutic (Kornhuber and Quack, 1995; Zajaczkowski et al., 1996)] to be used in subsequent experiments in transgenic mice. Memantine (Forest Research Institute, Jersey City, N.J.) was administered orally (via drinking water) to male C57BL/6J mice at the doses of 10 mg/kg/day (n=10), 30 mg/kg/day (n=10) and 100 mg/kg/day (n=10) for 4 weeks. The placebo group (n=10) had drinking water without memantine. Blood samples were taken from the femoral vein 4 weeks after the initiation of drug treatment to determine the steady-state plasma concentration of memantine. Plasma samples were analyzed at Merz Pharmaceuticals GmbH (Frankfurt am Main, Germany) using a gas chromatograph system coupled with a mass selective detector (Kornhuber and Quack., 1995).

[3] = tested on: APP/PS1 and NT mice; assay: Isolation-induced aggression test; assay type: in vivo; details: 30 mg/kg/day in drinking water
Experimental: Isolation-induced aggression: All test mice (‘residents’) had been housed in individual cages for at least 3 weeks prior to the start of this test. ‘Intruders’ were NT male C57B1/J6 mice, 16-20 weeks old at the time of testing, housed in groups of 4-8 since weaning. A randomly chosen intruder was placed in the resident's cage, and aggression of the resident was assessed by measuring attack latency, i.e. the time in seconds between the introduction of the intruder into the cage and the first attack by the resident. […]

[4] = tested on: APP/PS1 and NT mice; assay: Exploratory activity (TruScan automated activity monitor); assay type: in vivo; details: 30 mg/kg/day in drinking water, 10-min recording
Source text: as §2, with “mice). […]” for “mice).”
Exploratory activity: TruScan® (Coulbourn Instruments, CO, USA) automated activity monitor based on infrared photo detection was used for monitoring exploratory activity. […] Activity was measured for 10 min in two separate sessions separated by 48 h.
Statistical analysis All statistical analyses were performed using SPSS for Windows software, version 11.5.1 (SPSS, Chicago, Ill.). The effects of genotype, treatment, training day, and their interaction with the behavioral parameters of exploratory activity and performance in the Morris water maze were evaluated by analysis of variance (ANOVA) for repeated measures. […]

[5] = humans; Kornhuber and Quack 1995; cited from earlier work
[6] = tested on: sAPP; assay: sAPP levels in conditioned media by Western blotting (mAb22C11); assay type: cell-based, human; details: SK-N-SH cells; for levels of sAPP in conditioned media: 0.25-1.0 μg/ml (1-4 μM)
Experimental: as §1
Analysis of sAPP levels by Western blotting. Levels of total sAPP in the CM samples were measured by denaturing polyacrylamide gel electrophoresis (SDS-PAGE) followed by the Western immunoblotting using mAb22C11 antibody. Samples were loaded on the gel at equal volume of conditioned media (30 μg protein/sample). The density of specific APP bands in the blot was quantified using the NIH Image software. Levels of APP were expressed as a percent of controls. Levels of the constitutively expressed β-actin protein were measured in parallel as an internal control.
(§3) Data Analysis. Data were analyzed from 3-6 independent cell culture experiments. Statistical analysis (e.g., analysis of variance and post-hoc tests for multiple comparisons) was performed using the SPSS program (Statistical Products and Services Solutions, Chicago, Ill.) and included the mean and the standard error of the mean.

[7] = tested on: Aβ40; assay: Aβ40 levels in conditioned media by sandwich ELISA; assay type: cell-based, human; details: SK-N-SH cells; for levels of Aβ40 in conditioned media: 0.25-1.0 μg/ml (1-4 μM)
Experimental: as §1
Analysis of Aβ levels by ELISA. Quantitative solid phase sandwich ELISA (enzyme linked immunosorbent assay) was used to measure Aβ40 levels in the conditioned media samples. Specifically, an affinity purified anti-human Aβ (35-40) rabbit IgG was used as a capture antibody, and affinity purified HRP-conjugated anti-human Aβ (11-28) rabbit IgG Fab was used as a detection antibody (both reagents from IBL (Japan)). Since an antibody against Aβ (11-28) was used as a secondary conjugated antibody, human Aβ40 variants which cleaved at N-terminus sites were also detectable in the ELISA assay. TMB was used as a coloring agent (Chromogen). The measurement range was from 15.6 to ˜1,000 pg/ml (3.6 to ˜230.9 pmol/l).
as §3

[8] = tested on: rat hippocampal cells; details: Miguel-Hidalgo et al. 2002; cited from earlier work
[9] = tested on: APP/PS1 and NT mice; assay: Morris water maze (spatial learning and memory); assay type: in vivo; details: 30 mg/kg/day; for time spent in the target area, probe trial: sixth day, 60 s, mean±sem
Source text: as §2
Memantine treatment: Based on the pilot study, the dose of 30 mg/kg/day (see Results section for details) was chosen for the behavioral study and administered in drinking water for 3 weeks. Memantine was administered to 23 APP/PS1 mice and 19 NT mice. The placebo group (APP/PS1: n=22; NT: n=17) received drinking water without memantine. Behavioral testing started 2 weeks after treatment onset and continued for one week. After two weeks of treatment, mice were tested for exploratory activity, isolation-induced aggression, and performance in the Morris water maze.
Morris water maze: The Morris water maze was used to measure spatial learning and memory. The apparatus was a black plastic pool with a diameter of 120 cm. A black escape platform (square, 14×14 cm) was located 1.0 cm below (hidden) the water surface. The temperature of the water was kept constant throughout the experiment (20±0.5° C.), and a 10-min recovery period was allowed between the training trials. First, the mice were pre-trained to find and climb onto the platform for two days by using an alley (1 m×14 cm×25 cm) leading to the platform located 1 cm below the water. The training consisted of 8 consecutive days of testing, with 5 trials per day. […] During the first 5 days of testing the mice were trained with a hidden platform. The platform location was kept constant and the starting position varied between four constant locations at the pool rim. Mice were placed in the water with their nose pointing towards the wall at one of the starting points in a random manner. On the sixth day, the platform was removed and the mice were allowed to swim for 60 s to determine their search bias. On testing days 7 and 8, a black curtain was hung around the swimming pool in order to conceal all extra-maze visual cues. […] Timing of the latency to find the submerged platform was started and ended by the experimenter. A computer connected to an image analyzer (HVS Image®, Hampton, UK) monitored the swim pattern. During the water maze training, we measured swimming speed and latency to find the platform. The wall-swimming tendency (thigmotaxis) was assessed by dividing the pool into 3 concentric zones of equal surface area and calculating the time spent in the outer zone. Search bias during the probe trial was measured by calculating the time the mice spent in the vicinity of where the platform was previously located. We defined this as a target area centered on the platform with a diameter of 30 cm. This target area comprised 6.25% of the total surface area, thus a random swim for 60 s in the pool would yield a dwell time of 3.75 s in the target area during the probe trial.
Statistical analysis All statistical analyses were performed using SPSS for Windows software, version 11.5.1 (SPSS, Chicago, Ill.). The effects of genotype, treatment, training day, and their interaction with the behavioral parameters of exploratory activity and performance in the Morris water maze were evaluated by analysis of variance (ANOVA) for repeated measures. Attack latency from the isolation-aggression test was analyzed by two-way ANOVA with genotype and treatment as factors.

[10] = tested on: Fisher 344 rats; details: 30 mg/kg/day for 8 weeks, Barnes et al. 1996; cited from earlier work
[11] = tested on: human neuroblastoma cells; details: Lahiri et al. 1998; cited from earlier work

CC12CC3CC(C)(C1)CC(N)(C3)C2 [memantine, 1-amino-3,5-dimethyl adamantane]
cellular toxicity (LDH) [1]: not affected; also recorded: no toxicity | concentration at 4 weeks ([2]; 10 mg/kg/day oral (drinking water)): 490 ± 60 nM | concentration at 4 weeks ([2]; 30 mg/kg/day oral (drinking water)): 1140 ± 70 nM | concentration at 4 weeks ([2]; 100 mg/kg/day oral (drinking water)): 5540 ± 400 nM | aggressive behavior (latency to attack the intruder) ([3]; APP/PS1 mice): not significantly modified | aggressive behavior ([3]; NT mice): did not increase | horizontal activity (distance traveled) [4]: did not significantly affect | vertical activity (rearing) [4]: did not significantly affect | therapeutically effective circulating concentration [5]: approximately 1 μM | sAPP levels in the conditioned media ([6]; 1 μM for 6-12 days): trend towards a decrease | levels of sAPP in conditioned media ([6]; day 3): no significant changes | levels of sAPP in conditioned media ([6]; day 6): dose-dependent decrease | levels of sAPP in conditioned media ([6]; day 9 and day 12): persisting or further decreasing | sAPP levels in the conditioned media ([6]; 2-4 μM for 6-12 days): significantly decreased | levels of Aβ40 in conditioned media ([7]; day 3): no significant changes | levels of Aβ40 in conditioned media ([7]; day 6, compared to negative control): significant decrease | levels of Aβ40 in conditioned media ([7]; day 9, compared to negative control): significant decrease | Aβ40 levels in the conditioned media ([7]; 1-4 μM for up to 12 days): a decrease in its levels | Aβ-induced apoptosis [8]: protected | finding the visible platform ([9]; APP/PS1 mice (FIG. 11B), days 7-8): did not show a significant improvement | time spent in the outer zone of the pool (thigmotaxis) ([9]; APP/PS1 mice, p=0.04): significantly reduced | time spent in the target area, probe trial ([9]; APP/PS1 mice): 39.0 ± 2.0 s | escape latency, hidden platform ([9]; APP/PS1 mice, vs placebo-treated APP/PS1 mice, p=0.02): reduced | time spent in the outer zone of the pool (thigmotaxis) ([9]; NT mice, p=0.004): significantly reduced | escape latency (performance), hidden platform ([9]; NT mice, p=0.09 (not significant)): trend towards improved performance | time spent in the target area, probe trial ([9]; NT mice): 36.1 ± 2.6 s | performance level, hidden platform, compared with placebo-treated NT mice ([9]; memantine-treated APP/PS1 mice, Tukey's post-hoc p=0.96): did not differ | water maze learning [10]: improved water maze learning

Nc1c2c(nc3ccccc13)CCCC2 [tacrine]
cellular damage or toxicity [11]: absence of any detectable cellular damage or toxicity | release of Aβ40 [11]: reduce | release of Aβ42 [11]: reduce | release of sAPPα [11]: reduce | release of total Aβ [11]: reduce
